Measured values reported in the supplement of paper PMC4862054.

Assays:
Conditions in all cases: incubation time: 72 h
DU-4475 [1] = test: normalised response (% of control), CellTiter-Glo; higher = more viable cells (100 = DMSO, 0 = benzethonium chloride kill control)
Outline: (§1)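 Each value is the plate-normalised signal at one concentration of the series. Breast cancer cell lines (20 µl suspension) were incubated 72 h in 384-well plates with compound at 5 concentrations in 10-fold steps over a compound-specific 10,000-fold range. CellTox Green and then CellTiter-Glo were read, and each plate was scaled to 0.1 % DMSO (100) and a positive kill control (0).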

HCC1599 [2] = test: as above
Outline: as §1

MDA-MB-468 [3] = test: as above
Outline: as §1

MDA-MB-231 [4] = test: as above
Outline: as §1

CAL-148 [5] = test: as above
Outline: as §1

SK-BR-3 = test: as above
Outline: as §1

BT-474 [6] = test: as above
Outline: as §1

MDA-MB-436 [7] = test: as above
Outline: as §1

MDA-MB-453 [8] = test: as above
Outline: as §1

BT-549 [9] = test: as above
Outline: as §1

HCC1937 [10] = test: as above
Outline: as §1

CAL-120 [11] = test: as above
Outline: as §1

MCF-10A [12] = test: as above
Outline: as §1

Hs578T [13] = test: as above
Outline: as §1

CAL-85-1 [14] = test: as above
Outline: as §1

MFM-223 [15] = test: as above
Outline: as §1

HCC1143 [16] = test: as above
Outline: as §1

HDQ-P1 [17] = test: as above
Outline: as §1

CAL-51 [18] = test: as above
Outline: as §1

DU-4475 [19] = test: normalised response (% of control), CellTox Green; higher = less cell death (100 = DMSO, 0 = benzethonium chloride kill control)
Outline: as §1

HCC1599 [20] = test: as above
Outline: as §1

MDA-MB-468 [21] = test: as above
Outline: as §1

MDA-MB-231 [22] = test: as above
Outline: as §1

CAL-148 [23] = test: as above
Outline: as §1

BT-474 [24] = test: as above
Outline: as §1

MDA-MB-436 [25] = test: as above
Outline: as §1

MDA-MB-453 [26] = test: as above
Outline: as §1

BT-549 [27] = test: as above
Outline: as §1

HCC1937 [28] = test: as above
Outline: as §1

CAL-120 [29] = test: as above
Outline: as §1

MCF-10A [30] = test: as above
Outline: as §1

Hs578T [31] = test: as above
Outline: as §1

CAL-85-1 [32] = test: as above
Outline: as §1

MFM-223 [33] = test: as above
Outline: as §1

HCC1143 [34] = test: as above
Outline: as §1

HDQ-P1 [35] = test: as above
Outline: as §1

CAL-51 [36] = test: as above
Outline: as §1

SMILES | normalised response (DU-4475 [1]) [%] | normalised response (HCC1599 [2]) [%] | normalised response (MDA-MB-468 [3]) [%] | normalised response (MDA-MB-231 [4]) [%] | normalised response (CAL-148 [5]) [%] | normalised response (SK-BR-3) [%] | normalised response (BT-474 [6]) [%] | normalised response (MDA-MB-436 [7]) [%] | normalised response (MDA-MB-453 [8]) [%] | normalised response (BT-549 [9]) [%] | normalised response (HCC1937 [10]) [%] | normalised response (CAL-120 [11]) [%] | normalised response (MCF-10A [12]) [%] | normalised response (Hs578T [13]) [%] | normalised response (CAL-85-1 [14]) [%] | normalised response (MFM-223 [15]) [%] | normalised response (HCC1143 [16]) [%] | normalised response (HDQ-P1 [17]) [%] | normalised response (CAL-51 [18]) [%] | normalised response (DU-4475 [19]) [%] | normalised response (HCC1599 [20]) [%] | normalised response (MDA-MB-468 [21]) [%] | normalised response (MDA-MB-231 [22]) [%] | normalised response (CAL-148 [23]) [%] | normalised response (BT-474 [24]) [%] | normalised response (MDA-MB-436 [25]) [%] | normalised response (MDA-MB-453 [26]) [%] | normalised response (BT-549 [27]) [%] | normalised response (HCC1937 [28]) [%] | normalised response (CAL-120 [29]) [%] | normalised response (MCF-10A [30]) [%] | normalised response (Hs578T [31]) [%] | normalised response (CAL-85-1 [32]) [%] | normalised response (MFM-223 [33]) [%] | normalised response (HCC1143 [34]) [%] | normalised response (HDQ-P1 [35]) [%] | normalised response (CAL-51 [36]) [%]
CO[C@H]1C[C@@H]2CC[C@@H](C)[C@@](O)(O2)C(=O)C(=O)N2CCCC[C@H]2C(=O)O[C@H]([C@H](C)C[C@@H]2CC[C@@H](OCCO)[C@H](OC)C2)CC(=O)[C@H](C)/C=C(\C)[C@@H](O)[C@@H](OC)C(=O)[C@H](C)C[C@H](C)/C=C/C=C/C=C/1C [Everolimus] (10 nM) | 68.2 | 88.8 | 52.1 | 85.7 | 51.9 | 53.7 | 80.7 | 77.8 | 55.2 | 64.9 | 69.7 | 64.9 | 79.2 | 71.9 | 67.1 | 62.6 | 62.6 | 78.7 | 61.6 | 96 | 91.6 | 178 | 103 | 88 | 99.8 | 81.7 | 104 | 51 | 114 | 101 | 106 | 85.6 | 109 | 71.1 | 109 | 105 | 97.5
CC[C@]1(O)C[C@H]2CN(CCc3c([nH]c4ccccc34)[C@@](C(=O)OC)(c3cc4c(cc3OC)N(C=O)[C@H]3[C@@](O)(C(=O)OC)[C@H](OC(C)=O)[C@]5(CC)C=CCN6CC[C@]43[C@@H]65)C2)C1 [Vincristine] (100 nM) | 71.1 | 21.6 | 32.9 | 53.2 | 47.8 | 13.6 | 58.5 | 28.6 | 57.9 | 42.1 | 72.8 | 63.2 | 72.7 | 24.1 | 40.8 | 45.8 | 60.9 | 79.3 | 46.3 | 100 | 82.2 | 38.5 | 3.37 | 82.8 | 75.3 | 73.6 | 97.3 | 44.2 | 62.1 | 86.3 | -44.4 | 62.5 | 69.3 | 15.3 | 94.3 | 93 | 40.1
NS(=O)(=O)OC[C@@H]1C[C@@H](n2ccc3c(N[C@H]4CCc5ccccc54)ncnc32)C[C@@H]1O [Pevonedistat] (1000 nM) | 0.82 | 40 | 33 | 71 | 118 | 35.5 | 63.6 | 34.6 | 80.6 | 34.6 | 83.3 | 61.9 | 107 | 73.2 | 49.9 | 59.5 | 61.2 | 89.3 | 21.2 | 76.2 | 95 | 49.4 | 106 | 104 | 101 | 80.8 | 99.4 | 85 | 72.7 | 96.4 | 115 | 85 | 86.6 | 102 | 96.1 | 104 | -16
C[C@]12CC[C@H](O)CC1=CC[C@@H]1[C@@H]2CC[C@]2(C)C(c3cccnc3)=CC[C@@H]12 [Abiraterone] (500 nM) | 105 | 107 | 98 | 105 | 105 | 103 | 90.7 | 96 | 99.3 | 99.1 | 98.7 | 97.1 | 112 | 106 | 104 | 101 | 98.8 | 99.2 | 65.6 | 101 | 110 | 92 | 127 | 94.8 | 103 | 88.8 | 104 | 135 | 123 | 99.1 | 102 | 114 | 96 | 104 | 104 | 108 | 101
